Laboratory results from patent US20090221588A1, “FUNGICIDAL COMPOSITIONS” (SYNGENTA CROP PROTECTION, INC., priority 2006, published 2009).

What was measured:
[1] = test system: Septoria tritici; assay: Action against Septoria tritici: growth inhibition in nutrient broth, microtiter plate, photometric; type: cell-based; details: single active ingredient, 24° C., 72 hrs
Description: (§1) The action to be expected E for a given active ingredient combination obeys the so-called COLBY formula and can be calculated as follows (COLBY, S. R. “Calculating synergistic and antagonistic responses of herbicide combination”. Weeds, Vol. 15, pages 20-22; 1967): ppm=milligrams of active ingredient (=a.i.) per liter of spray mixture X=% action by active ingredient A) using p ppm of active ingredient Y=% action by active ingredient B) using q ppm of active ingredient. According to COLBY, the expected (additive) action of active ingredients A)+B) using p+q ppm of active ingredient is If the action actually observed (O) is greater than the expected action (E), then the action of the combination is super-additive, i.e. there is a synergistic effect. In mathematical terms, synergism corresponds to a positive value for the difference of (O-E). In the case of purely complementary addition of activities (expected activity), said difference (O-E) is zero. A negative value of said difference (O-E) signals a loss of activity compared to the expected activity. In the following examples a specific compound of formula (I) was used. Said compound of formula (I) was a mixture of the racemic syn- and anti-compound of formula (I), in a syn/anti-ratio of 9:1. Conidia of the fungus from cryogenic storage are directly mixed into nutrient broth (PDB potato dextrose broth). After placing a (DMSO) solution of the test compounds into a microtiter plate (96-well format) the nutrient broth containing the fungal spores is added. […] The fungicide interactions in the combinations are calculated according to COLBY method.

[2] = test system: Pseudocercosporella herpotrichoides var. acuformis; assay: Action against Pseudocercosporella herpotrichoides var. acuformis (eyespot/cereals): growth inhibition in nutrient broth, microtiter plate, photometric; type: cell-based; details: single active ingredient, 24° C., 72 hrs
Description: as §1

Row | SMILES | Observed control in % (% Cobs) ([1]; 0.063 ppm [mg/L] final medium) [%] | Observed control in % (% Cobs) ([1]; 0.125 ppm [mg/L] final medium) [%] | Observed control in % (% Cobs) ([2]; 0.016 ppm [mg/L] final medium) [%] | Observed control in % (% Cobs) ([2]; 0.031 ppm [mg/L] final medium) [%] | Observed control in % (% Cobs) ([2]; 0.063 ppm [mg/L] final medium) [%]
1 | CC(C)C1C2CCC1c1c(NC(=O)c3cn(C)nc3C(F)F)cccc12 (racemic) [Cpd I, 3-difluoromethyl-1-methyl-1H-pyrazole-4-carboxylic acid (9-isopropyl-1,2,3,4-tetrahydro-1,4-methano-naphthalen-5-yl)-amide] | 26 | 52 | 12 | 40 | 67
2 | O=C(NCCc1ncc(C(F)(F)F)cc1Cl)c1ccccc1C(F)(F)F [Cpd B-1.1, fluopyram] | 6 | 0 | 1 | 3 | 14
